What was measured:
cGAS = cGAS (Homo sapiens, UniProt Q8N884); test: SPR; type: binding
STING = STING (Homo sapiens, UniProt Q86WV6); test: SPR; type: binding
STING, sequence (Q86WV6 whole entry): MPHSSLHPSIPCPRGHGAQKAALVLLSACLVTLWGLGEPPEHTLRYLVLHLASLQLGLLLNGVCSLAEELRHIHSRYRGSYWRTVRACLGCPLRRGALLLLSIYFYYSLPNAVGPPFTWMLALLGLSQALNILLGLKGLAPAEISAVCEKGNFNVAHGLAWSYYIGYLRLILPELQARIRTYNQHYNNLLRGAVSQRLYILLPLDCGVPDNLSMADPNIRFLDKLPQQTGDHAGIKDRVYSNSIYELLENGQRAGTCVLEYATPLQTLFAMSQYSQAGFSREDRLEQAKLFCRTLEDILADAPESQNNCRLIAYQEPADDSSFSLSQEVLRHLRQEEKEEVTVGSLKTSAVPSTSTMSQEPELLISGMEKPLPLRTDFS

cGAS, sequence (Q8N884 whole entry): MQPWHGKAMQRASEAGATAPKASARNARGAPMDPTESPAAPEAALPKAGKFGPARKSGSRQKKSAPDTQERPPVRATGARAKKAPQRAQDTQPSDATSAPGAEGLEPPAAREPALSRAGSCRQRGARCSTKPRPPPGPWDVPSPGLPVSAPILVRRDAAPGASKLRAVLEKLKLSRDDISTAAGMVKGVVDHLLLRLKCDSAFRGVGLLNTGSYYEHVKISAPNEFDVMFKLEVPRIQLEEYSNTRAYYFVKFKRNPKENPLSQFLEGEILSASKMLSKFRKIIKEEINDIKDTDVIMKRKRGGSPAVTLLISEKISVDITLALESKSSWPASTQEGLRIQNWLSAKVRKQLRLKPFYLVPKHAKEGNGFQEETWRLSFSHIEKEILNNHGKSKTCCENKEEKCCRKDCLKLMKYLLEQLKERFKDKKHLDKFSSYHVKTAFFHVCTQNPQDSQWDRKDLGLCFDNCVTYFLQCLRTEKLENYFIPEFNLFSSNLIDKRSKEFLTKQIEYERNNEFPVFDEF

## COc1cc(O)c2c(=O)c(O)c(-c3ccc(O)cc3)oc2c1 [RH, rhamnocitrin]
cGAS
  Kd: 2.6 µM
STING
  Kd: 6.75 µM
